Experimental data published in US20190169140A1, “IDO1 INHIBITOR AND PREPARATION METHOD AND APPLICATION THEREOF” (SHANDONG LUYE PHARMACEUTICAL CO., LTD., priority 2016, published 2019).

Columns and labels:
[1] = Test for permeability across Caco2; assay type: in vitro ADME; details: human, Caco-2
Procedure: 2. Test for Permeability Across Caco2
A sample for test was dissolved in dimethyl sulfoxide (DMSO) or other suitable solvents, to be prepared into 10 mM stock solution. A suitable internal standard
Fenoterol, propranolol, and digoxin acted as low-permeability control, high-permeability control, and P-gp (P-glycoprotein) substrate, respectively, in the present research. The stock solutions of these compounds were prepared with DMSO, stocked at 2-8° C., and valid for use within 3 months.
In the present project, a Hank's balanced salt buffer containing 10 mM HEPES was used as a transport buffer.
Caco-2 cells were cultivated using MEM culture media (Minimum Essential Media), with a culture condition of 37±1° C., 5% CO2, and saturated relative humidity. Afterwards, the cells were inoculated into a BD Transwell-96-well plate, with an inoculation density of 1×10^5 cells/cm^2, then the cells were placed in a carbon dioxide incubator to be incubated for 21-28 days, and then used for a transport experiment.
The sample for test and digoxin with donation concentration of 2 μM were administered in two directions (direction A-B and direction B-A), each in duplicate. Fenoterol and propranolol each with test concentration of 2 μM were administered in a single direction (direction A-B), each in duplicate.
A solution to be used was placed in a 37±1° C. water bath kettle to be pre-incubated for 30 minutes. The donor solution and the receiver solution were respectively added to corresponding sides of well of cell plate (to each apical sides and each basolateral sides, 75 μL and 250 μL of samples were added respectively), and experiment of bidirectional transport was started. After addition of the samples, the cell plate was placed in a 37±1° C., 5% CO2 incubator with saturated relative humidity to be incubated for 120 minutes.
The samples were all centrifuged at 3220 g for 10 minutes after being shaken in a vortex manner. A suitable volume of a supernatant was transferred to a sample analyzing plate. If analysis was not carried out immediately after the plate was sealed, the plate was stored at 2-8° C. The analysis was carried out through a method of LC/MS/MS.
The sample for test, the fenoterol control, propranolol control, and digoxin were analyzed in a semiquantitative manner, and specific values of analytes to a peak area of the internal standard were taken as concentration of the controls.

[2] = molecular target: T1, IDO1 enzyme in Hela cells (Homo sapiens, UniProt P14902); test: Test of hIDO1 for cytological activity (Hela cell kynurenine by LCMS, interferon-γ induced); assay type: cell-based; details: interferon-γ 100 ng/ml, 20 hours
T1 construct: endogenous in cells; host or cells: Hela cells, induced with recombinant human interferon-γ
T1 sequence (P14902 whole entry): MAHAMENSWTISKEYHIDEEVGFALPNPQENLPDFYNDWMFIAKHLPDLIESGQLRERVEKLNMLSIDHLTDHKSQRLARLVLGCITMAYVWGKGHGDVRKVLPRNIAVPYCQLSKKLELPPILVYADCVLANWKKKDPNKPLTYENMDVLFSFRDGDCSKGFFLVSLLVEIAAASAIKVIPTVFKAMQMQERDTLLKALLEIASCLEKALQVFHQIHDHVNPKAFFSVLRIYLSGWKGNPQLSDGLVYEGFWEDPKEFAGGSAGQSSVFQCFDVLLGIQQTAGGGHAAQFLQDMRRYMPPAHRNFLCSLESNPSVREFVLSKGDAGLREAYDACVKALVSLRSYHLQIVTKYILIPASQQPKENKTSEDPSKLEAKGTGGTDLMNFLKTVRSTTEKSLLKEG
Procedure: 2. Test of hIDO1 for Cytological Activity
Changes in Hela cell kynurenine were detected by an LCMS method. With an IC50 value of a compound as an index, an inhibitory effect of the compound on IDO1 enzyme was evaluated.
The culture medium, trypsin, and DPBS were preheated in water bath at 37° C. The culture medium was removed by sucking from cell culture, followed by cleaning the cell culture with 10 mL of DPBS; the preheated trypsin was added to the culture flask, which was revolved to make the culture flask covered by trypsin uniformly, and placed into an incubator at 37° C. with 5% CO2 for digestion for 1-2 minutes; 10-15 mL of the culture medium was used to suspend cells each T150, followed by centrifugation at 800 rpm for 5 minutes. 10 mL of the culture medium was used to resuspend the cells. 1 mL of the cell resuspension was pipetted, and counted with Vi-cell; the Hela cells were diluted to 5×10^5/mL with the culture medium, 80 μL of the diluted Hela cells were added to the 96-well cell plate, and incubated in the an incubator at 37° C. with 5% CO2 for 5-6 hours.
The compound was diluted with DMSO to 1 mM, with 9 gradients, each 3-fold dilution, in duplicate. 5 μL of the already diluted compound DMSO solution was added to the compound plate containing 95 μL of the culture medium. After even mixing, 10 μL of the mixture was transferred to the cell plate.
10 μL of recombinant human interferon-γ was added to result in a final concentration of 100 ng/ml, to induce expression of IDO1. Incubation was carried out in the 5% CO2 incubator at 37° C. for 20 hours. 4 μL of 5% (w/v) trichloroacetic acid was added, followed by even mixing and incubation at 50° C. for 30 minutes. After centrifugation at 2400 rpm for 10 minutes, 40 μL of a supernatant was added to a 96-well V-bottom plate, followed by addition of a precipitant. Centrifugation was carried out at 4000 rpm for 10 minutes after even mixing. 100 μL of the supernatant was transferred to a new 96-well V-bottom plate. A content of kynurenine was detected through LCMS.
A reference well to which the interferon-γ was added but no compound was added was set to have an inhibition rate of 0%, and a reference well to which no Hela cell was added was set to have an inhibition rate of 100%. Data was analyzed with XLFit 5 to calculate an IC50 value of the compound.

CYP1A2 = molecular target: T2, CYP1A2 (Homo sapiens, UniProt P05177); test: Inhibition on human liver microsome CYP1A2; assay type: in vitro ADME; details: human liver microsomes; for IC50: 5-in-1 probe substrate
T2 construct: tissue Corning Inc. or XenoTech, LLC. or other suppliers; host or cells: mixed human liver microsomes
T2 sequence (P05177 1-516): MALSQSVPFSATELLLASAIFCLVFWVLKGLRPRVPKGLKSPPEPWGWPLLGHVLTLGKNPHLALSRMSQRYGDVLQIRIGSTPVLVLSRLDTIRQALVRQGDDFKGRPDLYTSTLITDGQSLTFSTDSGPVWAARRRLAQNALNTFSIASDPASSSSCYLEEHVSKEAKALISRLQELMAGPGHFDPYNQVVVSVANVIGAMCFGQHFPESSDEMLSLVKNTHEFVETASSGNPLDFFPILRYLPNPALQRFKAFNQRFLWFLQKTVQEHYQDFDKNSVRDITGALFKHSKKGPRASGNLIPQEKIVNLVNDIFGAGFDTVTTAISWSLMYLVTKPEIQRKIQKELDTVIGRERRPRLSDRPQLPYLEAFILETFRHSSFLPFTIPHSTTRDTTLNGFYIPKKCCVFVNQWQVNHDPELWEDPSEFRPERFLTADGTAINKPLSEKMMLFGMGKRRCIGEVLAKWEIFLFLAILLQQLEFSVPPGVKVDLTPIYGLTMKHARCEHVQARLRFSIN
Procedure: The research project aimed at evaluating inhibitory ability of a sample for test on human liver microsome cytochrome P450 isozymes (CYP1A2, CYP2C9, CYP2C19, CYP2D6, and CYP3A4) with use of a 5-in-1 probe substrate for CYP isozymes.
Mixed human liver microsomes (HLM) were purchased from Corning Inc. (Steuben, N.Y., USA) or XenoTech, LLC. (Lenexa, Kans., USA) or other suppliers, and stored in a condition below −70° C. before use.
Diluted working solutions of the sample for test in serial concentrations were added to an incubation system containing the human liver microsomes, probe substrate, and accessory factors of a cycling system, and a control containing no sample for test but a solvent was taken as a control for enzymatic activity (100%). Concentration of metabolites generated by the probe substrate in the sample was measured with a method of liquid chromatography-tandem mass spectrometry (LC-MS/MS). Nonlinear regression analysis of mean percentage activity vs concentration of the sample for test was carried out using SigmaPlot (V.11). An IC^50 value was calculated through a three-parameter or four-parameter inflection logarithmic equation.

| Compound | Papp A→B at 120 min, 2 µM [1] [×10⁻⁶ cm/s] | Papp B→A at 120 min, 2 µM [1] [×10⁻⁶ cm/s] | IC50 [2] [nM] | IC50 (CYP1A2) [nM] | inhibiting effect on CYP1A2 in words (CYP1A2) |
| --- | --- | --- | --- | --- | --- |
| NS(=O)(=O)NCCNc1nonc1C(=NO)Nc1ccc(F)c(Br)c1 [Compound 360, INCB024360, reference compound] | 0.39 | 19.6 |  |  |  |
| NS(=O)(=O)NCCOc1nonc1/C(=N/O)Nc1ccc(F)c(Br)c1 [Compound 0015] |  |  | 14 |  |  |
| NS(=O)(=O)NCCSc1nonc1/C(=N/O)Nc1ccc(F)c(Br)c1 [Compound 0117] | 2.97 | 12.2 | 5.85 |  |  |
| CC(=O)NCCSc1nonc1/C(=N/O)Nc1ccc(F)c(Br)c1 [Compound 0227] |  |  | 3.1 | 13000 |  |
| NC(=O)NCCSc1nonc1/C(=N/O)Nc1ccc(F)c(Br)c1 [Compound 0231] | 2.58 | 20.1 | 4.35 | > 50000 | relatively weak effect |
